# Where a name gives a salt, the structure may show the parent alone.
# Test system: S. pneumoniae R6 biofilms
# Experiment: Killing of preformed biofilms
# Assay type: cell-based, Streptococcus pneumoniae
# Settings: S. pneumoniae R6 biofilm, 1 h, 37°C, plating on blood agar
# Protocol: Biofilms were prepared as described ([Domenech and García, 2020]). Briefly, S. pneumoniae R6 cells in late exponential growth (OD550 ≈ 0.6; C + Y medium) were pelleted by centrifugation, resuspended in an equal volume of fresh medium, diluted 1/100 (4.5 × 10^6 CFU/mL), and then dispensed (200 µL per well) in 96-well flat-bottom polystyrene plates (Costar 3,595; Corning; Spain). After plate incubation at 34°C for 4.5 h without shaking, bacterial growth (non-adherent cells plus biofilm-forming cells) was determined by measuring the OD550 using a VersaMax microplate absorbance reader. The supernatant (non-adherent cells) was replaced by 200 μL of DICAM 4 (150, 300 or 600 µM) prepared by dilution in sterile water and plate incubation was continued for 1 h at 37°C. Plates were then washed and the biofilms disaggregated in sterile water for viable cell determination in Mueller-Hinton blood agar plates after overnight incubation at 37°C. For the observation of biofilms by CLSM, bacteria were grown on glass-bottomed dishes (WillCo-dish; WillCo Wells, Netherlands) and treated as above, plating 2 mL of the final inoculum per disc and then adding 0.5 mL of DICAM solution. […] Laser intensity and gain were kept the same for all images and they were analyzed using LCS software from Leica. […]
smiles,measurement,value
"CCCCCCCCCCCCCCCCCCNC(=O)[C@H](CCC(=O)O)NC(=O)[C@H]1CCCN1C(=O)[C@H](C)N [DICAM 4, Ala- Pro -Glu-NH-C18H37 ·HCl]",Cells killed in preformed biofilms at 300 μM,~90%

# — publication PMC11329928, “Design, synthesis and structure-activity relationship (SAR) studies of an unusual class of non-cationic fatty amine-tripeptide conjugates as novel synthetic antimicrobial agents” (Frontiers in Pharmacology, 2024)
